In patent US20090291945A1, “CYSTEINE PROTEASE INHIBITORS” (Teijin Pharma Limited, priority 2008, published 2009):

Experiments:
[1] = Metabolic stability test using human liver microsome; format: in vitro ADME; details: NADPH, 37° C., 25 minutes versus 0 minute, LC/MS peak area
Protocol: For the compounds synthesized according to the method of the above Examples and the compounds of formula (B) (the compounds disclosed in WO2002/070517), the metabolic stability test using the human liver microsome was performed and the residual rate of each compound was calculated.
To a human liver microsome solution (950 μL) was added a test compound solution (10 μL, 100 μM, acetonitrile solution) on an ice bath and the solution was divided into two equal parts, solution A and solution B. Note that the composition of the human liver microsome solution was as follows.
20 mg/mL protein human liver microsome (Xenotech LLC Lenexa, US): 10 μL 500 mM potassium phosphate buffer solution (pH 7.4): 200 μL 10 mM EDTA solution: 100 μL 60 mM MgCl2 solution: 50 μL 100 mM glucose-6-phosphate solution: 50 μL 100 I.U./mL glucose-6-phosphate dehydrogenase solution: 10 μL purified water: 530 μL
To the solution A (480 μL) was added acetonitrile (500 μL) on an ice bath, and then 25 mM NADPH solution (20 μL) was added. After vortexing, the mixture was centrifuged (3,000 rpm) at 4° C. for 10 minutes, and the supernatant was taken as the sample at the reaction time of 0 minute.
To the solution B (480 μL) was added 25 mM NADPH solution (20 μL). The mixture was incubated at 37° C. for 25 minutes. The reaction was quenched with acetonitrile (500 μL) and vortexing. The mixture was centrifuged (3,000 rpm) at 4° C. for 10 minutes, and the supernatant was taken as the sample at the reaction time of 25 minutes.
LC/MS measurement was performed for the samples at the reaction time of 0 minute and the reaction time of 25 minutes. Based on the peak area of the target molecular weight in the MS measurement, the residual rate of the sample at the reaction time of 25 minutes to the sample at the reaction time of 0 minute was calculated in percentage.

[2] = target: T1, cathepsin K (Homo sapiens, UniProt P43235); test: Cathepsin K inhibitory activity (fluorescent substrate Z-Leu-Arg-MCA); format: biochemical; details: enzyme expressed in HEK293T; 15 min preincubation, 30 min reaction at room temperature, pH 5.5; read-out: Activity Intensity (cathepsin K inhibitory activity, pIC50 class) (converted)
T1 construct: the active enzyme was obtained as the enzyme fraction by using detergent containing lysis buffer; made in house; host or cells: HEK293T (GenHunter Corporation), transient expression; detergent lysate used as enzyme fraction
T1 sequence (P43235 115-329): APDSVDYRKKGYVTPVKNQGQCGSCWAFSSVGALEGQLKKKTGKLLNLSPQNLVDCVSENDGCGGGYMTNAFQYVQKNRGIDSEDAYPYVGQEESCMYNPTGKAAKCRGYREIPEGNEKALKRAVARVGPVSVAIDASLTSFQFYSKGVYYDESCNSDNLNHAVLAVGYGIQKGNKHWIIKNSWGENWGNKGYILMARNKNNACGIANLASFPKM
Outline: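 Enzyme was HEK293T-expressed cathepsin K in pH 5.5 acetate buffer with 2 mM DTT, preincubated 15 min at room temperature with compound. Reaction started with Z-Leu-Arg-MCA (solution prepared at 10 μM), run 30 min, and AMC fluorescence read at 355/460 nm. IC50 taken from the curve of % inhibition vs DMSO.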

| Residual Rate at 25 minutes (%) [1] | IC50 [2] | SMILES |
| --- | --- | --- |
| 0% | ≤ 3.16 nM | CC[C@@H](CNc1ccc(OC)cc1OC)NC(=O)[C@H](CC(C)(C)F)N[C@@H](c1ccc(-c2ccc(S(C)(=O)=O)cc2)cc1)C(F)(F)F [Compound 5, (2S)—N-((1S)-1-{[(2,4-dimethoxyphenyl)amino]methyl}propyl)-2-[((1S)-2,2,2-trifluoro-1-{4-[4-(methylsulfonyl)phenyl]phenyl}ethyl)amino]-4-fluoro-4-methylpentanamide] |
| 0% | ≤ 3.16 nM | CC[C@@H](CNc1ccc(OC)cc1OC)NC(=O)[C@H](CC(C)(C)F)N[C@@H](c1ccccc1)C(F)(F)F [Compound 7, (2S)—N-((1S)-1-{[(2,4-dimethoxyphenyl)amino]methyl}propyl)-2-[((1S)-2,2,2-trifluoro-1-phenylethyl)amino]-4-fluoro-4-methylpentanamide] |
| – | ≤ 3.16 nM | CC[C@@H](CNc1ccc(OCC(=O)O)cc1OC)NC(=O)[C@H](CC(C)C)N[C@@H](c1ccccc1)C(F)(F)F [Compound 119] |
| – | 3.16 to 31.6 nM | CC[C@@H](CNc1ccc(OCC(=O)O)cc1OC)NC(=O)[C@H](CC(C)C)N[C@@H](c1ccc(=O)[nH]c1)C(F)(F)F [Compound 123] |
| – | 3.16 to 31.6 nM | CC[C@@H](CNc1ccc(OC(C)(C)C(=O)O)cc1OC)NC(=O)[C@H](CC(C)(C)F)N[C@@H](Cc1ccccc1)C(F)(F)F [Compound 132, 2-(4-{[(2S)-2-((2S)-2-{[(1S)-2,2,2-trifluoro-1-benzylethyl]amino}-4-fluoro-4-methylpentanoylamino)butyl]amino}-3-methoxyphenoxy)-2-methylpropanoic acid] |
| – | ≤ 3.16 nM | CC[C@@H](CNc1ccc(OCC(N)=O)cc1OC)NC(=O)[C@H](CC(C)(C)F)N[C@@H](c1ccccc1)C(F)(F)F [Compound 133, (2S)—N-[(1S)-1-({[4-(carbamoylmethoxy)-2-methoxyphenyl]amino}methyl)propyl]-2-[((1S)-2,2,2-trifluoro-1-phenylethyl)amino]-4-fluoro-4-methylpentanamide] |
| – | ≤ 3.16 nM | CC[C@@H](CNc1ccc(OCC(=O)N(C)C)cc1OC)NC(=O)[C@H](CC(C)(C)F)N[C@@H](c1ccccc1)C(F)(F)F [Compound 134] |
| – | ≤ 3.16 nM | CC[C@@H](CNc1ccc(OCC(=O)N2CCCC2)cc1OC)NC(=O)[C@H](CC(C)(C)F)N[C@@H](c1ccccc1)C(F)(F)F [Compound 135] |
| – | ≤ 3.16 nM | CC[C@@H](CNc1ccc(OCC(=O)N2CCOCC2)cc1OC)NC(=O)[C@H](CC(C)(C)F)N[C@@H](c1ccccc1)C(F)(F)F [Compound 136] |
| – | ≤ 3.16 nM | CC[C@@H](CNc1ccc(OCC(=O)NCCO)cc1OC)NC(=O)[C@H](CC(C)(C)F)N[C@@H](c1ccccc1)C(F)(F)F [Compound 137] |
| – | ≤ 3.16 nM | CC[C@@H](CNc1ccc(OCC[S+](C)[O-])cc1OC)NC(=O)[C@H](CC(C)(C)F)N[C@@H](c1ccc(Br)cc1)C(F)(F)F (stereo partly drawn) [Compound 138-1, (2S)-2-{[(1S)-1-(4-bromophenyl)-2,2,2-trifluoroethyl]amino}-N-{(1S)-1-[({2-methoxy-4-[2-(methylsulfinyl)ethoxy]phenyl}amino)methyl]propyl}-4-fluoro-4-methylpentanamide] |
| – | ≤ 3.16 nM | CC[C@@H](CNc1ccc(OCCS(C)(=O)=O)cc1OC)NC(=O)[C@H](CC(C)(C)F)N[C@@H](c1ccc(Br)cc1)C(F)(F)F [Compound 138-2, (2S)-2-{[(1S)-1-(4-bromophenyl)-2,2,2-trifluoroethyl]amino}-N-{(1S)-1-[({2-methoxy-4-[2-(methylsulfonyl)ethoxy]phenyl}amino)methyl]propyl}-4-fluoro-4-methylpentanamide] |
| – | 31.6 to 10000 nM | COc1ccc(NC[C@H](CC[S+](C)[O-])NC(=O)[C@H](CC(C)C)N[C@@H](c2ccccc2)C(F)(F)F)c(OC)c1 (stereo partly drawn) [Compound 139, (2S)—N-((1S)-1-{[(2,4-dimethoxyphenyl)amino]methyl}-3-(methylsulfinyl)propyl)-2-[((1S)-2,2,2-trifluoro-1-phenylethyl)amino]-4-methylpentanamide] |
| – | 31.6 to 10000 nM | CC[C@@H](CNc1ccc(-n2nccc2C(=O)O)cc1)NC(=O)[C@H](CC(C)C)N[C@@H](c1ccccc1)C(F)(F)F [Compound 143] |
| – | ≤ 3.16 nM | CC[C@@H](CNc1ccc(OCCCCC(=O)O)cc1OC)NC(=O)[C@H](CC(C)C)N[C@@H](c1ccccc1)C(F)(F)F [Compound 156] |
| – | 3.16 to 31.6 nM | CC[C@@H](CNc1ccc(OC)cc1OC)NC(=O)[C@H](CC(C)C)N[C@@H](c1ccc(O)cc1)C(F)(F)F [Compound 157, (2S)—N-((1S)-1-{[(2,4-dimethoxyphenyl)amino]methyl}propyl)-2-{[(1S)-2,2,2-trifluoro-1-(4-hydroxyphenyl)ethyl]amino}-4-methylpentanamide] |
| – | ≤ 3.16 nM | CC[C@@H](CNc1ccc(OCC#N)cc1OC)NC(=O)[C@H](CC(C)(C)F)N[C@@H](c1ccccc1)C(F)(F)F [Compound 161, (2S)—N-[(1S)-1-({[4-(cyanomethoxy)-2-methoxyphenyl]amino}methyl)propyl]-2-[((1S)-2,2,2-trifluoro-1-phenylethyl)amino]-4-fluoro-4-methylpentanamide] |

Second part, the molecule before the results:

| SMILES | Residual Rate at 25 minutes (%) [1] | IC50 [2] |
| --- | --- | --- |
| CC(C)C[C@H](Nc1cscc1-c1ccc(N2CCNCC2)cc1)C(=O)NCCNc1ccc(OCc2ccccc2)cc1 [B, reference compound] | 0% | – |
| CC[C@@H](CNc1ccc(N2CCOCC2)cc1)NC(=O)[C@H](CC(C)C)N[C@@H](c1ccc(=O)[nH]c1)C(F)(F)F [Compound 31] | 77% | ≤ 3.16 nM |
| CC[C@@H](CNc1ccc(N2CCOCC2)cc1)NC(=O)[C@H](CC(C)C)N[C@@H](c1ccc(F)cc1)C(F)(F)F [Compound 36] | 0% | ≤ 3.16 nM |
| CC[C@@H](CNc1ccc(N2CCOCC2)cc1)NC(=O)[C@H](CC(C)C)N[C@@H](c1ccc(=O)n(C)c1)C(F)(F)F [Compound 43] | 46% | ≤ 3.16 nM |
| CC[C@@H](CNc1ccc(-c2ccccc2)cc1)NC(=O)[C@H](CC(C)C)N[C@@H](c1ccc(OC)nc1)C(F)(F)F [Compound 46] | 65% | 31.6 to 10000 nM |
| COc1ccc(NC[C@H](CCS(C)(=O)=O)NC(=O)[C@H](CC(C)C)N[C@@H](c2ccc(=O)[nH]c2)C(F)(F)F)c(OC)c1 [Compound 81] | 41% | 31.6 to 10000 nM |
| CC(C)C[C@H](N[C@@H](c1ccccc1)C(F)(F)F)C(=O)N[C@@H](CC#N)CNc1ccc(N2CCOCC2)cc1 [Compound 93] | 63% | 3.16 to 31.6 nM |
| CC(C)C[C@H](N[C@@H](c1ccccc1)C(F)(F)F)C(=O)N[C@@H](CCCNC(=N)N)CNc1ccc(N2CCOCC2)cc1 [Compound 101] | 67% | ≤ 3.16 nM |
| CCOC(=O)c1ccnn1-c1ccc(NC[C@H](CC)NC(=O)[C@H](CC(C)C)N[C@@H](c2ccc(OC)nc2)C(F)(F)F)cc1 [Compound 115] | – | 31.6 to 10000 nM |
| CC[C@H](N[C@@H](CC(C)C)C(=O)N[C@@H](CCS(C)(=O)=O)CNc1ccc(OC)cc1OC)C(F)(F)F [Compound 116] | – | 31.6 to 10000 nM |
| CC(C)C[C@H](N[C@@H](c1ccccc1)C(F)(F)F)C(=O)N[C@@H](CCCO)CNc1ccc(N2CCOCC2)cc1 [Compound 125] | – | 31.6 to 10000 nM |
| CC(C)C[C@H](N[C@@H](c1ccccc1)C(F)(F)F)C(=O)N[C@@H](CN)CNc1ccc(N2CCOCC2)cc1 [Compound 128] | – | 3.16 to 31.6 nM |
| CC[C@@H](CNc1ccc(-n2nccc2C(=O)O)cc1)NC(=O)[C@H](CC(C)C)N[C@@H](c1ccc(OC)nc1)C(F)(F)F [Compound 144] | – | 31.6 to 10000 nM |
| CC[C@@H](CNc1ccc(N2CCC(C(=O)O)CC2)cc1)NC(=O)[C@H](CC(C)C)N[C@@H](c1ccc(OC)nc1)C(F)(F)F [Compound 146] | – | ≤ 3.16 nM |
| CC[C@@H](CNc1ccc(N2CCOCC2)cc1)NC(=O)[C@H](CC(C)C)N[C@@H](c1ccc(O)cc1)C(F)(F)F [Compound 158, (2S)—N-((1S)-1-{[(4-morpholin-4-ylphenyl)amino]methyl}propyl)-2-{[(1S)-2,2,2-trifluoro-1-(4-hydroxyphenyl)ethyl]amino}-4-methylpentanamide] | – | ≤ 3.16 nM |
